Where two headings read alike, the source gives them in different places.
Target: T1, human APJ receptor (Homo sapiens, UniProt P35414)
T1 construct: expressed in transfected cells
T1 sequence (P35414 1-380): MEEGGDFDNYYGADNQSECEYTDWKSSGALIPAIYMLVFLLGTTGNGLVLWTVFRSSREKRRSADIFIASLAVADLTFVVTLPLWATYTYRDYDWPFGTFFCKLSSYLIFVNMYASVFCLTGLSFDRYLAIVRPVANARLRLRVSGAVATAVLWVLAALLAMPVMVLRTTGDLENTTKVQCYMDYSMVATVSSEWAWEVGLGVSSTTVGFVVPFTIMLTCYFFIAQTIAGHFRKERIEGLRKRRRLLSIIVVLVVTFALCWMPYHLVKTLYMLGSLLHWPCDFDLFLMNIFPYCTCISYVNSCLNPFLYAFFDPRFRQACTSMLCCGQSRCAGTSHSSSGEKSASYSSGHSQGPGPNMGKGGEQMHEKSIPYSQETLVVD
Experiment: Intracellular cAMP accumulation assay (APJ hcAMP, HTRF)
Assay type: cell-based
Protocol: Intracellular cAMP Accumulation Assay
HEK293 cells stably expressing human APJ receptor were used to assess the activity of compounds. Cultured cells were detached and resuspended in the cAMP Homogeneous Time-Resolved Fluorescence (HTRF) assay buffer (Cisbio cat; #62AM4PEJ). The assay was performed in 384-well assay plates (Perkin-Elmer; cat #6008289) according to assay protocol provided by the manufacturer. Serial dilutions of a compound together with assay buffer containing […] IBMX and 2 μM forskolin were added to each well containing 5,000 cells and incubated for 30 minutes at room temperature. Subsequently, cAMP D2 reagent was added in the lysis buffer followed by the EuK antibody (Cisbio; cat #62AM4PEJ) and incubated for 60 min. The fluorescence emission ratio was measured using fluorometer. The intracellular cAMP concentrations (compound-stimulated inhibition of forskolin-mediated cAMP production) were calculated by extrapolation from a standard curve using known cAMP concentrations. The EC50 values were obtained by fitting the data to a sigmoidal concentration-response curve with variable slope. The maximal achievable inhibition of forskolin-induced cAMP levels (Ymax) for each compound was expressed as relative percentage of inhibition attained using pyroglutamated apelin-13 ((Pyrl)apelin-13) peptide, which was set to 100%.
The exemplified Examples disclosed below were tested in the APJ in vitro assays described above and were found having human APJ cyclic AMP (hcAMP) activity. Table 1 lists hcAMP EC50 values measured for the following examples. Ranges are as followε: A=0.0-10 nM; B=10.01-100 nM; C=101-500 nM.

[1] = Table 1, HEK293 cells stably expressing human APJ receptor, inhibition of forskolin-mediated cAMP production, read-out: APJ hcAMP EC50
[2] = Table 3, HEK293 cells stably expressing human APJ receptor, read-out: APJ cAMP Human EC50
[3] = human APJ, cAMP, potency range class, read-out: APJ cAMP Human EC50

| EC50 [1] [nM] | EC50 [2] [nM] | EC50 [3] [nM] | Structure (SMILES) |
| --- | --- | --- | --- |
| < 10 | < 10 |  | CC(C)(O)C[C@@H](NC(=O)c1ccc(-c2c(Cl)cccc2-c2nc3ccccc3[nH]2)c(C(=O)O)c1)c1ccccc1 (atropisomer, axis not shown) [Example 151, (S)-2′-(1H-1,3-benzodiazol-2-yl)-6′-chloro-4-{[(1R)-3-hydroxy-3-methyl-1-phenylbutyl]carbamoyl}-[1,1′-biphenyl]-2-carboxylic acid] |
| < 10 | < 10 |  | O=C(N[C@H](CN1CCOCC1)c1ccccc1)c1ccc(-c2c(Cl)cccc2-c2nc3ccccc3[nH]2)c(C(=O)O)c1 (atropisomer, axis not shown) [Example 156, (S)-2′-(1H-1,3-benzodiazol-2-yl)-6′-chloro-4-{[(1S)-2-(morpholin-4-yl)-1-phenylethyl]carbamoyl}-[1,1′-biphenyl]-2-carboxylic acid] |
| < 10 |  | < 10 | CCC[C@@H](NC(=O)c1ccc(-c2c(Cl)cccc2-c2nc3ccc(F)c(F)c3[nH]2)c(C(=O)O)c1)C1CCCCC1 (atropisomer, axis not shown) [Example 159, (S)-2′-chloro-4-{[(1R)-1-cyclohexylbutyl]carbamoyl}-6′-(6,7-difluoro-1H-1,3-benzodiazol-2-yl)-[1,1′-biphenyl]-2-carboxylic acid] |
| < 10 |  | < 10 | CCC[C@@H](NC(=O)c1ccc(-c2c(Cl)cccc2-c2nc3cc(F)c(F)cc3[nH]2)c(C(=O)O)c1)C1CCCCC1 (atropisomer, axis not shown) [Example 162, (S)-2′-chloro-4-{[(1R)-1-cyclohexylbutyl]carbamoyl}-6′-(5,6-difluoro-1H-1,3-benzodiazol-2-yl)-[1,1′-biphenyl]-2-carboxylic acid] |
| 10 to 100 |  | 10 to 100 | O=C(NC(CCC(F)(F)F)c1ccccc1)c1ccc(-c2cc(Cl)ccc2-c2nc3ccccc3[nH]2)c(C(=O)O)c1 (racemic) [Example 158, 2′-(1H-Benzo[d]imidazol-2-yl)-5′-chloro-4-((4,4,4-trifluoro-1-phenylbutyl)carbamoyl)-[1,1′-biphenyl]-2-carboxylic acid] |
| 10 to 100 |  | 10 to 100 | CCC(NC(=O)c1ccc(-c2cc(Cl)ccc2-c2nc3ccccc3[nH]2)c(C(=O)O)c1)c1ccccn1 (racemic) [Example 213, 2′-(1H-1,3-benzodiazol-2-yl)-5′-chloro-4-{[1-(pyridin-2-yl)propyl]carbamoyl}-[1,1′-biphenyl]-2-carboxylic acid] |
| < 10 |  | < 10 | CCCC(NC(=O)c1ccc(-c2c(Cl)cccc2-c2nc3ccccc3[nH]2)c(C(=O)O)c1)c1ccc(Cl)cc1OC (single isomer, unassigned) [Example 164] |
| < 10 |  |  | CCCC(NC(=O)c1ccc(-c2c(Cl)cccc2-c2nc3ccccc3[nH]2)c(C(=O)O)c1)c1ccc(Cl)cc1OC (single isomer, unassigned) [Example 166] |
| < 10 |  | < 10 | CCCC(NC(=O)c1ccc(-c2c(Cl)cccc2-c2nc3ccccc3[nH]2)c(C(=O)O)c1)c1ccccc1Cl (single isomer, unassigned) [Example 169] |
| < 10 |  | < 10 | CCCC(NC(=O)c1ccc(-c2c(Cl)cccc2-c2nc3ccccc3[nH]2)c(C(=O)O)c1)C1CCCCCC1 (single isomer, unassigned) [Example 173] |
| < 10 |  | < 10 | CCC[C@H](NC(=O)c1ccc(-c2c(Cl)cccc2-c2nc3ccccc3[nH]2)c(C(=O)O)c1)C1CCCCC1 (single isomer, unassigned) [Example 177] |

The next lines start with the molecule.

| Structure (SMILES) | EC50 [1] [nM] | EC50 [2] [nM] | EC50 [3] [nM] |
| --- | --- | --- | --- |
| COC[C@@H](NC(=O)c1ccc(-c2c(Cl)cccc2-c2nc3ccccc3[nH]2)c(C(=O)O)c1)c1ccccc1 (atropisomer, axis not shown) [Example 150, (S)-2′-(1H-1,3-benzodiazol-2-yl)-6′-chloro-4-{[(1S)-2-methoxy-1-phenylethyl]carbamoyl}-[1,1′-biphenyl]-2-carboxylic acid] | < 10 | < 10 |  |
| CCC[C@H](NC(=O)c1ccc(-c2c(Cl)cccc2-c2nc3ccccc3[nH]2)c(C(=O)O)c1)c1ccccc1 (atropisomer, axis not shown) [Example 152, (S)-2′-(1H-1,3-benzodiazol-2-yl)-6′-chloro-4-{[(1S)-1-phenylbutyl]carbamoyl}-[1,1′-biphenyl]-2-carboxylic acid] |  | 10 to 100 |  |
| COC[C@@H](NC(=O)c1ccc(-c2c(Cl)cccc2-c2nc3cc(OC)c(F)cc3[nH]2)c(C(=O)O)c1)c1ccccc1 (atropisomer, axis not shown) [Example 154, (S)-2′-chloro-6′-(6-fluoro-5-methoxy-1H-1,3-benzodiazol-2-yl)-4-{[(1S)-2-methoxy-1-phenylethyl]carbamoyl}-[1,1′-biphenyl]-2-carboxylic acid] |  | < 10 |  |
| CCC[C@@H](NC(=O)c1ccc(-c2c(Cl)cccc2-c2nc3cc(O)ccc3[nH]2)c(C(=O)O)c1)c1ccccc1 (atropisomer, axis not shown) [Example 155, (S)-2′-chloro-6′-(5-hydroxy-1H-1,3-benzodiazol-2-yl)-4-{[(1R)-1-phenylbutyl]carbamoyl}-[1,1′-biphenyl]-2-carboxylic acid] |  | < 10 |  |
| CC(C)CC(NC(=O)c1ccc(-c2cc(Cl)ccc2-c2nc3ccccc3[nH]2)c(C(=O)O)c1)c1ccccc1 (racemic) [Example 210, 2′-(1H-1,3-benzodiazol-2-yl)-5′-chloro-4-[(3-methyl-1-phenylbutyl)carbamoyl]-[1,1′-biphenyl]-2-carboxylic acid] | < 10 |  | < 10 |
| CC(C)(C)CC(NC(=O)c1ccc(-c2cc(Cl)ccc2-c2nc3ccccc3[nH]2)c(C(=O)O)c1)c1ccccc1 (racemic) [Example 212, 2′-(1H-1,3-benzodiazol-2-yl)-5′-chloro-4-[(3,3-dimethyl-1-phenylbutyl)carbamoyl]-[1,1′-biphenyl]-2-carboxylic acid] | 10 to 100 |  | 10 to 100 |
| CCC(NC(=O)c1ccc(-c2cc(Cl)ccc2-c2nc3ccccc3[nH]2)c(C(=O)O)c1)c1ccncc1 (racemic) [Example 214, 2′-(1H-1,3-benzodiazol-2-yl)-5′-chloro-4-{[1-(pyridin-4-yl)propyl]carbamoyl}-[1,1′-biphenyl]-2-carboxylic acid] | 10 to 100 |  | 10 to 100 |
| CCC[C@@H](NC(=O)c1ccc(-c2c(C)cccc2-c2nc3cc(C(F)(F)F)ccc3[nH]2)c(C(=O)O)c1)c1ccccc1 (single isomer, unassigned) [Example 146] | < 10 | < 10 |  |
| CCC[C@@H](NC(=O)c1ccc(-c2c(C)cccc2-c2nc3cc(C(F)(F)F)ccc3[nH]2)c(C(=O)O)c1)c1ccccc1 (single isomer, unassigned) [Example 147] |  | 101 to 500 |  |
| CCCC(NC(=O)c1ccc(-c2c(Cl)cccc2-c2nc3cc(Cl)c(F)cc3[nH]2)c(C(=O)O)c1)C1CCCCC1 (single isomer, unassigned) [Example 161] | < 10 |  | < 10 |
| CCCC(NC(=O)c1ccc(-c2c(Cl)cccc2-c2nc3ccccc3[nH]2)c(C(=O)O)c1)c1c(C)cc(C)cc1C (single isomer, unassigned) [Example 163] | < 10 |  | < 10 |
| CCCC(NC(=O)c1ccc(-c2c(Cl)cccc2-c2nc3ccccc3[nH]2)c(C(=O)O)c1)c1ccc(F)cc1OC (single isomer, unassigned) [Example 165] | < 10 |  | < 10 |
| CCCC(NC(=O)c1ccc(-c2c(Cl)cccc2-c2nc3ccccc3[nH]2)c(C(=O)O)c1)c1ccncc1 (single isomer, unassigned) [Example 168] | < 10 |  | < 10 |
| CCCC(NC(=O)c1ccc(-c2c(Cl)cccc2-c2nc3ccccc3[nH]2)c(C(=O)O)c1)c1cccc(F)c1 (single isomer, unassigned) [Example 171] | < 10 |  | < 10 |
| CCCC(NC(=O)c1ccc(-c2c(Cl)cccc2-c2nc3ccccc3[nH]2)c(C(=O)O)c1)c1ccccn1 (single isomer, unassigned) [Example 175] | < 10 |  | < 10 |
| CCC[C@H](NC(=O)c1ccc(-c2c(Cl)cccc2-c2nc3ccccc3[nH]2)c(C(=O)O)c1)c1ccccc1OC(F)(F)F (single isomer, unassigned) [Example 176] | < 10 |  | < 10 |
| CCCC(NC(=O)c1ccc(-c2c(Cl)cccc2-c2nc3ccccc3[nH]2)c(C(=O)O)c1)c1c(F)cccc1OC (single isomer, unassigned) [Example 178] | < 10 |  | < 10 |
